According to patent US20210093714A1, “Combination and method for inhibiting the cancer cells” (NATIONAL TAIWAN UNIVERSITY, priority 2013, published 2021):
Residues, ends and D or L forms follow the SMILES beside them. *: point of attachment. Cbz = O=C(OCc1ccccc1)*

What was measured:
EGFR [1] = assay: Immunoprecipitation and in vitro binding assay of CCN2 and EGFR; design: species or system human; settings: A549; rEGF 20 ng/mL for 24 h; rCCN2 100 ng/mL; FIG. 2C
Method: CCN2 transfectants were seeded overnight and incubated in serum-free media for 24 h. For immunoprecipitations, cells were lysed in an RIPA buffer (150 mM NaCl, 50 mM Tris-base, 5 mM EDTA, 1% NP-40, and 0.25% deoxycholate; pH 7.4). Protein concentrations were determined using the BCA protein assay kit (Pierce, Rockford, Ill., USA). Lysate was incubated for 2 h at 4[…] with gentle rotation with rabbit polyclonal antibodies for human EGFR, CCN2, or Src immobilized onto protein A—sepharose beads (Santa Cruz Biotechnology, Santa Cruz, Calif., USA). Beads were washed twice with an IP buffer (137 mM NaCl, 2.7 mM KCl, 1 mM MgCl2, 1 mM CaCl2, 1% NP-40, 10% glycerol, 1 mg/ml bovine serum albumin, and 20 mM Tris; pH 8.0), boiled in a sodium dodecyl sulfate-polyacrylamide gel electrophoresis (SDS-PAGE) sample buffer, and centrifuged (12000×g, 4° C. for 15 min).
The recombinant proteins rCCN2 (BioVendor Com. Heidelberg, Germany), rEGFR, and rEGF (R&D Techne Corporation) ([…]) were added in binding buffer (50 mM sodium phosphate, pH 7.5, 500 mM NaCl, and I% Nonidet P-40) and incubated with gentle rotation at 4° C. for 2 h. Thereafter, crosslinks were reversed by boiling in an SDS-PAGE sample buffer (containing 0.1M dithiothreitol (DTT)) before loading on SDS-PAGE gels for immunoblotting analysis. […]

[2] = tested on: CCN2 transfected lung adenocarcinoma cell line, CL1-5; assay: MTT Assay, chemotherapy drugs on CCN2 transfected CL1-5; format: cell-based, human; settings: suspended CCN2 transfected CL1-5; increasing dose 0 to 10 μM; 24 hrs; FIG. 8A
Method: First, the effect of CCN2 on the suspended lung adenocarcinoma cell line, CL1-5, treated with chemotherapy was observed by MTT Assay, the results shown in FIG. 8A (Cells were treated for 24 hrs, *P<0.05, **P<0.01). […] In this embodiment, paclitaxel treatment with a concentration between 1 μM and 10 μM is perferred, and 10 μM is most preferable; doxorubicin treatment with a concentration between 0.5 μM and 10 μM is perferred, and 5 μM is most preferable.

DAPK = assay: Western blot of DAPK expression; format: cell-based, human; settings: CL1-5; PD98059 0, 10, 20 μM; FIG. 6E
Method: (§1) Proteins ([…]) were separated by SDS-PAGE and transferred to a polyvinylidene difluoride membrane (Immobilon-P membrane; Millipore) by electrotransfer. The blot was blocked in a solution of 5% skim milk and 0.1% Tween 20 in PBS. Thereafter, membrane-bound proteins were probed with the following primary antibodies: CCN2, DAPK, phosphorylated ERK, ERK-1, phosphorylated Akt, Akt, TrkA, phosphorylated-Src, Src, b-actin, a-tubulin (Santa Cruz Biotechnology), p-EGFR, and EGFR (Cell Signaling Technology, Danvers, MA, USA). The membrane was washed and then incubated with HRP-conjugated secondary antibodies for 30 min. Enhanced chemiluminescence reagents (Amersham Pharmacia Biotech, Piscataway, N.J., USA) were employed to depict the protein bands on membranes. The light was captured on Kodak X-Omat Blue autoradiography film (PerkinElmer Life Sciences, Boston, Mass., USA).
This embodiment focuses on the downstream signaling in CCN2-induced anoikis. At first, the effect of DAPK which can up-regulate CCN2 played on CCN2 induced anoikis and metastasis inhibition of lung adenocarcinoma cell lineswas observed by RT-PCR, dual luciferase reporter assay and western blot analysis, the results shown in FIGS. 6A to 6C. […] In addition, in the lung adenocarcinoma cell line, CL1-0/siCCN2, DAPK expression is suppressed, and DAPK expression also be suppressed with increasing dose (0 μg, 1μg, 3μg), (as shown on the top right in the FIG. 6C). Therefore, CCN2 induced DAPK expression in time- and dose-dependent manners.

ERK = assay: Western blot of ERK phosphorylation; format: cell-based, human; settings: CL1-5; PD98059 0, 10, 20 μM; FIG. 6E
Method: as §1
This embodiment focuses on the effect of CCN2 on the EGFR-induced signaling pathways. At first, the effect of exogenous CCN2(rCCN2) on the MAPK/AKT signaling pathways in the lung adenocarcinoma cell lines, CL1-5, A549 and CL1-0/siCCN2 was observed by western blot analysis, the results shown in FIG. 3A.

EGFR [3] = assay: Western blot of CCN2-induced EGFR degradation; format: cell-based, human; settings: CL1-5 with CCN2
Method: as §1
This embodiment focuses on whether CCN2 interacts with EGFR. At first, the effect of MG132 and CCN2 on the degradation of EGFR in the lung adenocarcinoma cell line, CL1-5, and the effect of cycloheximide and CCN2 on the degradation of EGFR in the lung adenocarcinoma cell line, CL1-5,were observed by western blot analysis, the results shown in FIGS. 4A and 4B. […] On the other hand, cycloheximide can gradually promote CCN2-induced EGFR degradation and attenuated the protein signal intensity(Fold) of EGFR (attenuated from 0.74 to 0.39)(as shown in FIG. 4B) with increasing time (0 hours, 12 hours, 24 hours, 48 hours). Thus, CCN2 can destabilize EGFR and enhance the degradation of EGFR.

EGFR [4] = molecular target: T1, EGFR (Homo sapiens, UniProt P00533); assay: FACS and western blot, CCN2 domain responsible for EGFR binding; format: cell-based; settings: suspended A549; rCT 100 ng/mL; FIG. 2G
T1 construct: endogenous in cells; host or cells: CL1-5 and A549 human lung adenocarcinoma cell lines
Method: After washing, cells were stained with an FITC-labelled goat anti-rabbit secondary antibody (Santa Cruz Biotechnology) for 30 min in the dark. Analysis was then conducted with an FACS Calibur cytometer (Collaborative Biomedical, BD Biosciences).

EGF: EGFR ligand, recombinant protein (R&D Techne Corporation) [reference compound]
effect on physical association between CCN2 and EGFR (EGFR [1]): do not block the physically association between CCN2 and EGFR

CC(=O)O[C@H]1C(=O)[C@@]2(C)[C@H]([C@H](OC(=O)c3ccccc3)[C@]3(O)C[C@H](OC(=O)[C@H](O)[C@@H](NC(=O)c4ccccc4)c4ccccc4)C(C)=C1C3(C)C)[C@]1(OC(C)=O)CO[C@@H]1C[C@@H]2O [paclitaxel]
cell apoptosis [2]: increase cell apoptosis more significantly

COc1cccc(-c2cc(=O)c3ccccc3o2)c1N [PD98059, reference compound]
DAPK expression (DAPK): gradually increase the DAPK expression
p-ERK (ERK): gradually inhibit p-ERK

COc1cccc2c1C(=O)c1c(O)c3c(c(O)c1C2=O)C[C@@](O)(C(=O)CO)C[C@@H]3O[C@H]1C[C@H](N)[C@H](O)[C@H](C)O1 [doxorubicin]
cell apoptosis [2]: increase cell apoptosis more significantly

C[C@@H]1C[C@@H]([C@H](O)CC2CC(=O)NC(=O)C2)C(=O)[C@@H](C)C1 [cycloheximide]
protein signal intensity(Fold) of EGFR (EGFR [3]; cycloheximide, end of time course (48 hours), FIG. 4B): 0.39 Fold
protein signal intensity(Fold) of EGFR (EGFR [3]; cycloheximide, start of time course (0 hours), FIG. 4B): 0.74 Fold

CC(C)C[C@@H](C=O)NC(=O)[C@H](CC(C)C)NC(=O)[C@H](CC(C)C)NC(=O)OCc1ccccc1 [MG132] (Cbz-Leu-Leu-Leu-aldehyde)
protein signal intensity(Fold) of EGFR (EGFR [3]; MG132, end of time course (24 hours), FIG. 4A): 1.41 Fold
protein signal intensity(Fold) of EGFR (EGFR [3]; MG132, start of time course (0 hours), FIG. 4A): 0.04 Fold

B1: rCT: carboxyl-terminal cystine knot (CT) domain of CCN2, CCN2 functional fragment (protein)
chain: KGKKCIRTPKISKPIKFELSGCTSMKTYRAKFCGVCTDGRCCTPHRTTTLPVEFKCPDGEVMKKNMMFIKTCACHYNCPGDNDIFESLYYRKMYGDMA
association of CT-domain of CCN2 with EGFR (EGFR [4]): has association relationship with EGFR
